Experimental data reported in paper PMC3733081 (Journal of chemical information and modeling, 2013).
Read-outs that look alike come from different tables or passages of the source.

Tests used:
[1] = n-hexadecane/water; settings: for P (n-hexadecane/water partition coefficient): shake-flask, P=l1/l2, ± error
[2] = value without superscript a: measured and listed in Table S1; cited from earlier work
[3] = n-hexadecane/1-octanol; settings: for logP C16/O: calculated as logPC16/W-logPO/W
[4] = value without superscript b; ref ClogP database; cited from earlier work
[5] = 25 °C, shaking at 25 rpm, fit of eqs 1 and 2

Compound	P (n-hexadecane/water partition coefficient) ([1]; 25 °C)	l1 (rate parameter of transport from water to C16) [1, 5]	l2 (rate parameter of transport from C16 to water) [1, 5]	logP C16/O [3]	further results
O=C(c1ccccc1)c1ccc(Br)cc1 [4-bromobenzophenone]	(2.891±0.684)×10^2	(1.054±0.026)×10^1 cm/h	(3.646±0.858)×10^−2 cm/h		
O=C(c1ccccc1)c1ccc(Cl)cc1 [4-chlorobenzophenone]	(7.315±2.674)×10^2	(1.102±0.216)×10^2 cm/h	(1.507±0.465)×10^−1 cm/h		
FC(F)(F)C(Cl)Br (stereo not shown) [halothane, reference compound]				−0.200	logP C16/W [2]: 2.100
Cn1ccc2ccccc21 [N-methylindole]				0.969	
Nc1ccc([N+](=O)[O-])cc1 [4-nitroaniline]	(1.890±0.656)×10^−1	(1.192±0.406)×10^−1 cm/h	(6.295±0.407)×10^−1 cm/h		
Cc1c[nH]c2ccccc12 [3-methylindole]				−1.360	logP C16/W [2]: 0.810
O=C=O [carbon dioxide]					affinity for n-hexadecane versus 1-octanol (logPC16/W vs logPO/W, Figure 1) ([3]; small molecules plotted as crosses in Figure 1): not observed
CC(C)c1c(O)ccc2c1CC[C@H]1C(C)(C)CCC[C@]21C [totarol]				−0.924	
CCCCCc1cc(OC)c2c(c1)OC(C)(C)C1CC=C(C)CC21 (stereo not shown) [methoxy-Δ8-tetrahydrocannabinol]				0.027	logP O/W [4]: 8.060
Nc1ccccc1 [aniline]	(7.860±1.639)×10^−1	(1.502±0.286)×10^−1 cm/h	(1.912±0.162)×10^−1 cm/h		
NC(=O)Cc1ccccc1 [2-phenylacetamide]		(1.624±0.359)×10^−2 cm/h	(2.771±0.857)×10^−1 cm/h		
C1=Cc2ccccc2C1 [1H-indene]				−0.078	logP O/W [4]: 2.920
c1ccc2c(c1)[nH]c1ccccc12 [9H-carbazole]				−0.851	
Cc1cc(O)ccc1Cl [4-chloro-3-methylphenol]	1.651±0.701	(1.491±0.611)×10^−1 cm/h	(9.029±1.001)×10^−2 cm/h		
COc1ccccc1OC [1,2-dimethoxybenzene]	(2.723±1.352) ×10^1	1.171 ± 0.535 cm/h	(4.301±0.840)×10^−2 cm/h		
NCCc1c2ccccc2cc2ccccc12 [9-anthracene-ethanamine]				−1.549	
Nc1cccc(Br)c1 [3-bromoaniline]	(1.107±0.106)×10^1	(6.304±0.471)×10^−1 cm/h	(5.693±0.339)×10^−2 cm/h		
CCOC(=O)c1ccc(N)cc1 [benzocaine, reference compound]	1.560±0.666	(1.163±0.488)×10^−1 cm/h	(7.455±0.577)×10^−2 cm/h		
CNC(=O)c1ccccc1 [N-methylbenzamide]	(6.450±1.180)×10^−1	(4.982±0.860)×10^−1 cm/h	(7.724±0.467)×10^−1 cm/h		
CCCCCO [1-pentanol]				−1.745	
FC(F)OC(Cl)C(F)(F)F (stereo not shown) [isofluorane, reference compound]				−0.410	
Cc1c2ccccc2cc2ccccc12 [9-methylanthracene]				−0.015	logP O/W [4]: 5.070
FC1(F)CCC1(F)Cl (stereo not shown) [1-chloro-1,2,2-trifluorocyclobutane]				1.436	
Cn1c2ccccc2c2ccccc21 [N-methylcarbazole]				0.799	logP O/W [4]: 3.990
CCC(O)c1ccccc1 (stereo not shown) [1-phenyl-1-propanol]	3.153±0.630	(3.864±0.154)×10^−1 cm/h	(1.226±0.240)×10^−1 cm/h		
O=C(O)CCc1ccc(C=CC=CC=Cc2ccccc2)cc1 [4-(6-phenyl-1,3,5-hexatrien-1-yl)-benzenepropanoic acid]				−2.702	

Compound	P (n-hexadecane/water partition coefficient) ([1]; 25 °C)	l1 (rate parameter of transport from water to C16) [1, 5]	l2 (rate parameter of transport from C16 to water) [1, 5]	logP C16/O [3]	further results
O=C(O)Cc1c2ccccc2cc2ccccc12 [9-anthracene-acetic acid]				−2.570	
CCc1ccccc1 [ethylbenzene]				0.050	
c1ccc2ncccc2c1 [quinoline]		(3.766±0.198)×10^−1 cm/h	(3.566±1.200)×10^−2 cm/h		
CC(C)(c1ccc(O)cc1)c1ccc(O)cc1 [bisphenol A]				−4.222	logP C16/W [2]: −0.902
O=C(O)CCCc1c[nH]c2ccccc12 [1H-indole-3-butanoic acid]				−3.531	
CC(C)(C)CC(C)(C)c1ccc(O)cc1 [4-tert-octylphenol]				−1.665	
OCc1ccccc1 [benzylalcohol]				−1.530	logP C16/W [2]: −0.430
C(=CC=Cc1ccccc1)C=Cc1ccccc1 [1,6-diphenyl-1,3,5-hexatriene]				0.188	
OCc1c2ccccc2cc2ccccc12 [9-anthracenemethanol]	(2.211±0.554)×10^2	1.565 ± 0.236 cm/h	(7.080±1.416)×10^−3 cm/h	−0.700	logP O/W [4]: 3.040
CCOC(=O)c1cccnc1 [ethylnicotinate]	3.583±0.983	(5.074±1.031)×10^−1 cm/h	(1.416±0.261)×10^−1 cm/h		
Cc1ccc(C=CC=CC=Cc2ccccc2)cc1 [1-methyl-4-(6-phenyl-1,3,5-hexatrien-1-yl)-benzene]				0.193	
CCCCCc1cc(O)c2c(c1)OC(C)(C)[C@@H]1CC=C(C)C[C@@H]21 [Δ8-tetrahydrocannabinol]				−2.139	logP O/W [4]: 7.410
Cn1c(=O)c2c(ncn2C)n(C)c1=O [caffeine, reference compound]		(5.485±0.851)×10^−2 cm/h	(2.309±0.430)×10^−1 cm/h		
O=CNc1ccccc1 [formanilide]	2.900±0.955)×10^−1	(1.532±0.501)×10^−1 cm/h	(5.283±0.213)×10^−1 cm/h		
O=[N+]([O-])c1ccccc1 [nitrobenzene]					l1 (rate parameter of transport from water to C16) [1]: 1.162 ± 0.218 cm/h; l2 (rate parameter of transport from C16 to water) [1]: (3.950±0.694)×10^−2 cm/h
CN[C@@H](C)[C@H](O)c1ccccc1 [ephedrine, reference compound]				−1.770	logP C16/W [2]: −0.840
C=CCc1ccccc1O [2-allylphenol]		(2.286±0.857)×10^−1 cm/h	(3.211±0.685)×10^−2 cm/h		
Cc1ccc(Cl)cc1[N+](=O)[O-] [4-chloro-2-nitrotoluene]	(8.660±3.938)×10^2	(2.168±0.605)×10^2 cm/h	(2.504±0.899)×10^−1 cm/h		
CCCCCCCCCC [n-decane]				1.030	logP C16/W [2]: 7.010
c1ccncc1 [pyridine]					l1 (rate parameter of transport from water to C16) [1]: (9.512±0.343)×10^−2 cm/h; l2 (rate parameter of transport from C16 to water) [1]: (2.672±0.669)×10^−1 cm/h
c1ccc2[nH]ccc2c1 [indole]	5.660±0.633	(6.291±0.522)×10^−1 cm/h	(1.111±0.083)×10^−1 cm/h	−0.920	
CCCCCCCO [1-heptanol]				−1.655	
Oc1ccccc1-c1ccccc1 [2-phenylphenol]	(3.536±1.329)×10^1	(3.699±0.935)×10^−1 cm/h	(1.046±0.291)×10^−2 cm/h		
CC(=O)Nc1ccccc1 [acetanilide]	(2.580±0.857)×10^−1	(1.315±0.434)×10^−1 cm/h	(5.104±0.179)×10^−1 cm/h		
CCCCCCCCO [1-octanol]				−1.310	
O=C(O)CCCCCCCCCCn1c2ccccc2c2ccccc21 [11-(9-carbazole)-undecanoic acid]				−1.418	
